Patent US10363251B2, “(+)-morphinans as antagonists of toll-like receptor 9 and therapeutic uses thereof” (Mallinckrodt LLC, priority 2009, dated 2019)

Key:
[1] = target: T1, TLR9 (Homo sapiens, UniProt Q9NR96); assay: TLR9 antagonist screening, NF-κB-inducible SEAP reporter in HEK293 cells; assay type: cell-based; conditions: for Average % Inhibition at TLR9: 10 μM, stimulated with CpG ODN 2006 at 100 ng/ml
T1 construct: expressed in transfected cells; host or cells: HEK293
T1 sequence (Q9NR96 26-1032): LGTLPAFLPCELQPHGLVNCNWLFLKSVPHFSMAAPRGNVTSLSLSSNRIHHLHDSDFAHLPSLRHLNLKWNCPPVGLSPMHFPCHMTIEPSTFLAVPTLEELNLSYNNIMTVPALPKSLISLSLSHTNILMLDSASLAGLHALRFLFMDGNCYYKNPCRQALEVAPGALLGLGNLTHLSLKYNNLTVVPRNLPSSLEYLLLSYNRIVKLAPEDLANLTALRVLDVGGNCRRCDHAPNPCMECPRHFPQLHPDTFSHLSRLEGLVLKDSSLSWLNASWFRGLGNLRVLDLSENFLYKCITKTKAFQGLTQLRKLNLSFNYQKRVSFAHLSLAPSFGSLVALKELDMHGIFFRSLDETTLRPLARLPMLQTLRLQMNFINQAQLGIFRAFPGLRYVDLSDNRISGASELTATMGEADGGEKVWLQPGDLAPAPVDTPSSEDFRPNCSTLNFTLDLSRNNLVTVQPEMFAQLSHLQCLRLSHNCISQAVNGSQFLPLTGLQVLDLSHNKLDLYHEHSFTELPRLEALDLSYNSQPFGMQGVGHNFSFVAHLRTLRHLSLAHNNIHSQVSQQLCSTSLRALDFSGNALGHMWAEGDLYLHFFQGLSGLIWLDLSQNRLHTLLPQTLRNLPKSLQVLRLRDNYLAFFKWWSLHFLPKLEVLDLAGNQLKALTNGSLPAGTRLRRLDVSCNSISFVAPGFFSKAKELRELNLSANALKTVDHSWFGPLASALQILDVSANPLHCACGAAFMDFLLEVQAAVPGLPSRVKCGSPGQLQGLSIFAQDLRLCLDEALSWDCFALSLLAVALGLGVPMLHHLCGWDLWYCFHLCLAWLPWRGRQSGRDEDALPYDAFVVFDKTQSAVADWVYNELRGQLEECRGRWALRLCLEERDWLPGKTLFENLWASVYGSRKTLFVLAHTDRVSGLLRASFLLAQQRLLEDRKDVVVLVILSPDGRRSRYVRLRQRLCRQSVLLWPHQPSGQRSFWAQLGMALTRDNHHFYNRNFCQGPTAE
Procedure: (§1) Stimulation of TLRs 2, 3, 4, 5, 7, 8, and 9 was determined by assessing activation of the transcription factor NF-κB in HEK293 cells that were engineered to express the corresponding receptors. Assessment of TLR stimulation was based on the use of an NF-κB-inducible secreted alkaline phosphatase (SEAP) reporter system in which the SEAP reporter was under the control of a promoter inducible by NF-κB. Thus, the degree of activation of TLRs can be indirectly quantified spectrophotometrically by measuring the amount of the SEAP reporter that is produced.
(§2) The appropriate TLR-expressing cells were plated in Growth Medium in a 96-well plate (25,000-50,000 cells/well). The cells were stimulated with the appropriate positive control ligand or no ligand was added (negative control). The positive control ligands were: HKLM was used to stimulate TLR2; poly(I:C) was used to stimulate TLR3; LPS was used to stimulate TLR4; Flagellin was used to stimulate TLR5; CL097 was used to stimulate TLR7; CL075 was used to stimulate TLR8; CpG oligodeoxynucleotide (ODN) 2006 was used to stimulate TLR9. To test whether (+)-morphinans could block that activation of the TLR, the cells were pretreated with an antagonist for 30 minutes prior to addition of the positive control ligand. For this, 20 μL of the stock test compound solution (100 μM in H2O) was added to give a total volume of 200 μL. […] After a 16-20 hr incubation period at 37° C. in a CO2 incubator, 20 μL of the cell culture supernatant was added to 180 μL of QUANTI-Blue™ Media (InvivoGen, San Diego, Calif.), and the resulting solutions were incubated at 37° C. for an additional 1-3 hours according to the manufacturer's instructions. The OD's of the samples were then read at 650 nm on a Beckman Coulter AD 340C Absorbance Detector.

[2] = tested on: APAP-induced liver toxicity; assay: Acetaminophen (APAP)-induced hepatotoxicity model; assay type: in vivo, mouse; conditions: APAP 500 mg/Kg ip, 12 hours post-APAP; for Protection from APAP-induced toxicity: test doses and timing per Table 6; for Liver histology scores (necrosis and hemorrhage) / Serum alanine transaminase (ALT) levels: vs APAP alone
Procedure: For this, APAP-induced liver toxicity was induced in male C57BL/6 mice aged between 8-10 weeks by a single intraperitoneal (ip) injection of APAP in PBS at a dose of 500 mg/Kg (Imaeda et al. (2009) J. Clin. Invest. 119(2):305-314). The ability of (+)-morphinans to reduce liver toxicity was tested in the following groups:
The (+)-morphinan (or PBS) was either administered as a single subcutaneous (sc) or ip injection concurrent with the APAP injection or one hour prior to the APAP injection.
The mice were sacrificed 12 hours post-APAP treatment. Liver samples were stained with H&E and analyzed for signs of necrosis and hemorrhage. Histology scores were assigned using the standard rating scale. The levels of serum alanine transaminase (ALT) were also measured in each animal using a standard assay.

[3] = target: T2, TLR4 (Homo sapiens, UniProt O00206); assay: TLR4 antagonist screening, NF-κB-inducible SEAP reporter in HEK293 cells; assay type: cell-based; conditions: for Average % Inhibition at TLR4: 10 μM, stimulated with LPS at 100 ng/ml
T2 construct: expressed in transfected cells; host or cells: HEK293
Procedure: as §1, §2

[4] = tested on: hepatic IR injury in steatotic livers; assay: IR injury in high fat diet (HFD) steatotic liver model; assay type: in vivo, mouse
Source text: In addition to the scarcity of liver donations, many of the donor livers have a significant degree of steatosis which is known to increase IR injury. Thus, many otherwise healthy, but steatotic, livers are rejected for transplantation. If a drug can be shown to reduce IR injury in steatotic livers it would allow use of steatotic livers for transplantation and increase the total number of liver transplants that could be performed. To test this, mice were placed on a high fat diet (HFD) for 12 weeks to induce hepatic steatosis, which was followed by IR injury. For this, mice were subjected to hepatic ischemia by occluding the vasculature supplying the left and median lobes (ischemic lobes) of the liver by a microvascular clamp. After 1 hour of ischemia, the blood supply was resumed (reperfusion). Some animals were sacrificed after 3 hour of reperfusion, and others after 12 hours or reperfusion. The experimental group received Cmpd II-78 at a dose of 80 mg/kg given intraperitoneally 1 hour prior to starting ischemia. Cellular and molecular responses were assessed essentially as described above in Example 9.

T2 sequence (O00206 24-839, species assumed): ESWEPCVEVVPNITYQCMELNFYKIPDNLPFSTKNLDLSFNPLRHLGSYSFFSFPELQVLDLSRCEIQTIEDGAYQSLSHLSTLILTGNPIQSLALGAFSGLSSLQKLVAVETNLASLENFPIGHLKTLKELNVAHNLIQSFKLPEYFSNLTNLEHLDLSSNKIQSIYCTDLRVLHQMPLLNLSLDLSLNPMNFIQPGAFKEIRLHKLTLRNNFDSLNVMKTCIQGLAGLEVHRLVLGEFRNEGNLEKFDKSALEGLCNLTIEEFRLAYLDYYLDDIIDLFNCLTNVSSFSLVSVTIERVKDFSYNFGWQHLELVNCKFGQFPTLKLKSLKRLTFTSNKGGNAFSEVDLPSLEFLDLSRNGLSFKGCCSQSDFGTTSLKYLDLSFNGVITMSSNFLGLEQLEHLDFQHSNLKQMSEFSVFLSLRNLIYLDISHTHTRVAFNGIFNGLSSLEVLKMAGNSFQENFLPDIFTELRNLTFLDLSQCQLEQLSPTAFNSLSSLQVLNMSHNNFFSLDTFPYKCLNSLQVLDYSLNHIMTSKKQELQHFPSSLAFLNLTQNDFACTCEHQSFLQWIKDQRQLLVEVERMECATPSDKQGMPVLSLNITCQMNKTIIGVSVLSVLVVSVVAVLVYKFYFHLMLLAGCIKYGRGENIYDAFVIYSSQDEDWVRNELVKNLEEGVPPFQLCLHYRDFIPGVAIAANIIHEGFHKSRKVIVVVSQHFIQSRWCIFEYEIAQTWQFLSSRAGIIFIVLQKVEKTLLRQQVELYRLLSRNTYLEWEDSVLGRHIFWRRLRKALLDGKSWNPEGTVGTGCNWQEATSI
T2 sequence (Q9Y6Y9 17-160 partner limits assumed, species assumed): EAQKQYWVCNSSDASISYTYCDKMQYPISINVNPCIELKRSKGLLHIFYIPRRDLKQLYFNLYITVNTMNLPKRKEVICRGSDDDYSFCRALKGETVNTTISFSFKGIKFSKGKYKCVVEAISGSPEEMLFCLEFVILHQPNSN

Question: `C=CCN1CC[C@]23c4c5ccc(O)c4O[C@H]2C(=O)CC[C@]3(O)[C@H]1C5` [(+)-Naloxone, (+)-naloxone] was tested. Which “Average % Inhibition at TLR9” value [1] did it give?
Answer: The value was 45%.

Question: What about the “Protection from APAP-induced toxicity” value [2] of the same compound?
Answer: Its value is “essentially no protection”.

Question: And the “Protection from APAP-induced toxicity” value ([2]; listed as (+)-naloxone)?
Answer: Its value is “did not affect acetaminophen-induced hepatotoxicity”.

Question: And the “Liver histology scores (necrosis and hemorrhage)” value [2]?
Answer: The value was “did not improve the histology scores”.

Question: And the “Serum alanine transaminase (ALT) levels” value [2]?
Answer: The value was “reduced the ALT levels”.

Question: What about the “Average % Inhibition at TLR4” value [3] of the same compound?
Answer: The value was 25%.

Question: Which results are given for `COc1ccc2c(c1O)[C@@]13CCN(C)[C@@H](C2)[C@H]1CC(OC)C(=O)C3` (stereo partly shown) [Dihydrosinomenine, dihydrosinomenine]?
Answer: Average % Inhibition at TLR9 [1]: 42%; Average % Inhibition at TLR4 [3]: 23%

Question: What does the source list for `CN[C@@H]1CC[C@]2(O)[C@@H]3Cc4ccc(O)c5c4[C@]2(CCN3CC2CC2)[C@@H]1O5` [II-78]?
Answer: Protection from APAP-induced toxicity [2]: provided protection; Liver histology scores (necrosis and hemorrhage) [2]: reduced to about half; Serum alanine transaminase (ALT) levels [2]: reduced significantly; IR-induced activation of MAP kinases (western blotting), steatotic livers ([4]; HFD): reduction of IR-induced activation of MAP kinases; IR-induced cleavage and activation of TLR9 (western blotting), steatotic livers ([4]; HFD): reduction of IR-induced cleavage and activation of LTR9; Histological Suzuki score (hepatic IR injury), steatotic livers ([4]; HFD 12 weeks, 80 mg/kg ip 1 hour prior to ischemia, 3 and 12 hours of reperfusion): reduced hepatic ischemic reperfusion (IR) injury in steatotic livers; IR-induced serum ALT levels, steatotic livers ([4]; HFD, 80 mg/kg ip, 3 and 12 hours of reperfusion): reduced IR-induced serum alanine transaminase (ALT) levels in steatotic livers; Anti-inflammatory molecule IL-1Ra mRNA, steatotic livers ([4]; HFD, 12 hours of reperfusion): increased an anti-inflammatory molecule; IR-induced pro-inflammatory cytokines (IL-1β, MCP-1, NLPR3 mRNA), steatotic livers ([4]; HFD, 12 hours of reperfusion): reduced IR-induced pro-inflammatory cytokines

Question: What does the source list for `COC1=C[C@@H]2[C@@H]3Cc4ccc(OC)c(O)c4[C@]2(CCN3C)CC1=O` [Sinomenine, sinomenine]?
Answer: inhibition at 10 µM ([1]; HEK293, stimulated with CpG ODN 2006 at 100 ng/ml): 55%; inhibition at 10 µM ([3]; HEK293, stimulated with LPS at 100 ng/ml): 24%
